The values that follow are results of earlier work, collected in article PMC6954965 (Neuropharmacology, 2019).

For one series, the system named is Male Sprague-Dawley rats. To be noted: administered directly into the nucleus accumbens shell; ref Schmidt et al., 2013.
The next series deals with PICK1 PDZ domain. To be noted: binds the PDZ domain of PICK1; ref Thorsen et al., 2010.
For the next series, the target named is PSD95 tandem PDZ domains. As to conditions: dimeric peptide inhibitor of PSD95 tandem PDZ domains; ref Bach et al., 2012.

As usually defined, the Ki is a dissociation constant, usually derived from enzyme kinetics or from competition with a known ligand. Consider `CCOC(=O)NC(=O)/C(C#N)=C/c1ccc(Cl)c(Cl)c1` [FSC231], for which the “reinstatement of cocaine seeking” value in the series with Male Sprague-Dawley rats is listed as “sufficient to attenuate”. Besides, the inhibition constant (Ki) at PICK1 PDZ domain was 10.1 µM.
As to Tat-NPEG4(IEDTV)(2), the Ki on PSD95 tandem PDZ domains was 0.0046 µM.
